Assay [1] deals with three cancer cell lines (MGC-803, MCF-7, A549). In words: CCK-8 proliferation assay, three cancer cell lines together. In kind it is cell-based. The settings on record: Homo sapiens, 48 h, read-out: IC50 values toward three cancer cell lines. On the procedure:
All synthesized β-lactam-azide derivatives were evaluated for their antiproliferative activity against three cancer cell lines (MGC-803, MCF-7, A549) using CCK-8 proliferation assay. The well-known anticancer drug CA-4P was used as a control[36],[37].
MGC-803 cell line was obtained from the Chinese Academy of Sciences (Shanghai, China). MCF-7 and A549 were from the National Cell Center, China. MGC-803 cells were cultured in DMEM culture medium (DMEM, Biological Industries, Kibbutz Beit Haemek, Israel). A549 and MCF-7 cells were cultured in 1640 medium (1640, Biological Industries, Kibbutz Beit Haemek, Israel). All medium were supplemented with 10% fetal bovine serum, 100 U/ml penicillin (North China Pharmaceutical group Co.), and 100 µg/ml streptomycin (North China Pharmaceutical group Co.). All cells were cultured at 37 °C in a humidified incubator containing 5% CO2.
Synthesized analogues used in the study were dissolved in 100% cell culture grade DMSO and the final concentration of DMSO as <0.1% for testing on cancer cell lines. […] The absorbance was measured using a microplate reader (BioTek Instrument, Inc. Vermont, USA) with a test wavelength of 450 nm. The absorbance levels were corrected against untreated control absorbance values. […]
Background: Tetrazolium assays rely on reduction of a dye to a coloured formazan, in cell work by metabolically active cells.

The test system of assay [2] is MGC-803 cells. Kind of assay: Cell cycle analysis by flow cytometry. Format: cell-based, human. The settings on record: for G2/M population: 24 h (Fig. 3A). On the procedure:
MGC-803 cells were incubated in the absence and presence of 28. Subsequently, the cells were fixed with 70% alcohol in PBS. The fixed cells were incubated with RNase (1 µg/mL) propidium iodide (50 µg/mL) for 2 h. Flow cytometry analysis was performed using BD FACS (Becton Dickinson, San Jose, CA, USA).

SMILES strings stand for the structures. pIC50: −log10 of the molar value.

One may read the pIC50 as −log10 of the IC50, conventionally taken in molar units. Regarding `COc1cc(N2C(=O)[C@H](c3cccs3)[C@H]2c2cccc(N=[N+]=[N-])c2)cc(OC)c1OC` (relative stereo) [Compound 28, trans-4-(3-azidophenyl)-3-(thiophen-2-yl)-1-(3,4,5-trimethoxyphenyl)azetidin-2-one], in assay [1], the pIC50 was 6.29 to 6.97. In addition, the “cells at the G2/M phase” value in assay [2] (0.1 μM, 12 h (Fig. 3C)) was 12.63%; in assay [2] (0.1 μM, 36 h (Fig. 3C)) it was 44.59%. In addition, the G2/M population is on record as 14.13% in assay [2] (0.1 μM), 23.42% in assay [2] (0.2 μM) and 44.37% in assay [2] (0.3 μM).

Source of the values: paper PMC5630639 (Scientific Reports, 2017).
